Experimental data from the kinase profiling compilation of Christmann-Franck et al. (2016).

Tests used:
Experiment in all cases: KINOMEscan competition binding
Conditions in all cases: compound 10.0 µM
MST1R (human) = MST1R (human) (UniProt Q04912)
EGFR (human) = EGFR (human) (UniProt P00533)
[1] = tested on: ABL1 (human), P00519 [E255K]
EPHA7 (human) = EPHA7 (human) (UniProt Q15375)
MAPKAPK2 (human) = MAPKAPK2 (human) (UniProt P49137)
CDK18 (human) = CDK18 (human) (UniProt Q07002)
PIK3C2B (human) = PIK3C2B (human) (UniProt O00750)
AXL (human) = AXL (human) (UniProt P30530)
TXK (human) = TXK (human) (UniProt P42681)
PKN2 (human) = PKN2 (human) (UniProt Q16513)
CDK9 (human) = CDK9 (human) (UniProt P50750)
NTRK1 (human) = NTRK1 (human) (UniProt P04629)
IKBKB (human) = IKBKB (human) (UniProt O14920)
CAMK2G (human) = CAMK2G (human) (UniProt Q13555)
MARK4 (human) = MARK4 (human) (UniProt Q96L34)
MAPK6 (human) = MAPK6 (human) (UniProt Q16659)
PAK2 (human) = PAK2 (human) (UniProt Q13177)
MAP3K9 (human) = MAP3K9 (human) (UniProt P80192)
NTRK2 (human) = NTRK2 (human) (UniProt Q16620)
[2] = tested on: EGFR (human), P00533 [L858R]
CSNK1A1L (human) = CSNK1A1L (human) (UniProt Q8N752)
TEC (human) = TEC (human) (UniProt P42680)
DCLK2 (human) = DCLK2 (human) (UniProt Q8N568)
MAP2K2 (human) = MAP2K2 (human) (UniProt P36507)
CDK11B (human) = CDK11B (human) (UniProt P21127)
ITK (human) = ITK (human) (UniProt Q08881)
AKT3 (human) = AKT3 (human) (UniProt Q9Y243)
AURKA (human) = AURKA (human) (UniProt O14965)
PRKG2 (human) = PRKG2 (human) (UniProt Q13237)
[3] = tested on: RET (human), P07949 [V804M]
MAPK13 (human) = MAPK13 (human) (UniProt O15264)
[4] = tested on: ABL1 (human), P00519 [H396P]
FGR (human) = FGR (human) (UniProt P09769)
BMPR2 (human) = BMPR2 (human) (UniProt Q13873)
ROS1 (human) = ROS1 (human) (UniProt P08922)
NEK7 (human) = NEK7 (human) (UniProt Q8TDX7)
ACVR1B (human) = ACVR1B (human) (UniProt P36896)
CAMK4 (human) = CAMK4 (human) (UniProt Q16566)
[5] = tested on: EGFR (human), P00533 [A750P; 747-749 del]
CDK3 (human) = CDK3 (human) (UniProt Q00526)
DDR2 (human) = DDR2 (human) (UniProt Q16832)
[6] = tested on: EGFR (human), P00533 [G719C; 746-750 del]

CSNK1A1L (human), sequence (Q8N752 whole entry, looked up): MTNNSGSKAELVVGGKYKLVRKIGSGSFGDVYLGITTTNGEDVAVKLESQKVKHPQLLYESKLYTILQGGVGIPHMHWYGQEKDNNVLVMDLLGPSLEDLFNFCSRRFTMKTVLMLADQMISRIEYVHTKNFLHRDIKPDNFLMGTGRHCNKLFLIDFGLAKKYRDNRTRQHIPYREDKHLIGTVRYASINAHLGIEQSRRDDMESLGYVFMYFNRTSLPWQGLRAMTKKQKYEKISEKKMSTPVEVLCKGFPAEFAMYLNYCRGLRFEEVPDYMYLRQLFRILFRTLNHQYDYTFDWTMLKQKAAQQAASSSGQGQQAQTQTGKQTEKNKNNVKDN
CDK11B (human), sequence (P21127 whole entry, looked up): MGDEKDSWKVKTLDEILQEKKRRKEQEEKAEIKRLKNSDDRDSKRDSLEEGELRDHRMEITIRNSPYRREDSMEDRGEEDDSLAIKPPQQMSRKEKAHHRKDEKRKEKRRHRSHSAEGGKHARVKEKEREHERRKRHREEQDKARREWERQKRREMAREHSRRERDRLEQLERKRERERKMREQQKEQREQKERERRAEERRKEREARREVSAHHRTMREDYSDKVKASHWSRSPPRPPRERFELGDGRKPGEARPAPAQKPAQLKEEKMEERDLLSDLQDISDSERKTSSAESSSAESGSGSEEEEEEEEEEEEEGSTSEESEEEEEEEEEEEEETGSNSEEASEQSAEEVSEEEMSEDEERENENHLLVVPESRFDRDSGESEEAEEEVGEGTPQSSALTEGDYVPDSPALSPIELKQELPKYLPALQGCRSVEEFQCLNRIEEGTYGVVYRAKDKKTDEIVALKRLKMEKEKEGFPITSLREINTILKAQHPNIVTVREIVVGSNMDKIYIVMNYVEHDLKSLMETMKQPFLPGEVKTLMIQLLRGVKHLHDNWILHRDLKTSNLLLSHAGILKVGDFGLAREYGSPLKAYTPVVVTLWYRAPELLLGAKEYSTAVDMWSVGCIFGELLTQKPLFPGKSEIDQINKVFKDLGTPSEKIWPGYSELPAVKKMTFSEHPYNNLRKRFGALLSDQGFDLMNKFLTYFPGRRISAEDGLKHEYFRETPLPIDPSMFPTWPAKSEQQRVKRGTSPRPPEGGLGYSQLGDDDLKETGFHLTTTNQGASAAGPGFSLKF
EPHA7 (human), sequence (Q15375 whole entry, looked up): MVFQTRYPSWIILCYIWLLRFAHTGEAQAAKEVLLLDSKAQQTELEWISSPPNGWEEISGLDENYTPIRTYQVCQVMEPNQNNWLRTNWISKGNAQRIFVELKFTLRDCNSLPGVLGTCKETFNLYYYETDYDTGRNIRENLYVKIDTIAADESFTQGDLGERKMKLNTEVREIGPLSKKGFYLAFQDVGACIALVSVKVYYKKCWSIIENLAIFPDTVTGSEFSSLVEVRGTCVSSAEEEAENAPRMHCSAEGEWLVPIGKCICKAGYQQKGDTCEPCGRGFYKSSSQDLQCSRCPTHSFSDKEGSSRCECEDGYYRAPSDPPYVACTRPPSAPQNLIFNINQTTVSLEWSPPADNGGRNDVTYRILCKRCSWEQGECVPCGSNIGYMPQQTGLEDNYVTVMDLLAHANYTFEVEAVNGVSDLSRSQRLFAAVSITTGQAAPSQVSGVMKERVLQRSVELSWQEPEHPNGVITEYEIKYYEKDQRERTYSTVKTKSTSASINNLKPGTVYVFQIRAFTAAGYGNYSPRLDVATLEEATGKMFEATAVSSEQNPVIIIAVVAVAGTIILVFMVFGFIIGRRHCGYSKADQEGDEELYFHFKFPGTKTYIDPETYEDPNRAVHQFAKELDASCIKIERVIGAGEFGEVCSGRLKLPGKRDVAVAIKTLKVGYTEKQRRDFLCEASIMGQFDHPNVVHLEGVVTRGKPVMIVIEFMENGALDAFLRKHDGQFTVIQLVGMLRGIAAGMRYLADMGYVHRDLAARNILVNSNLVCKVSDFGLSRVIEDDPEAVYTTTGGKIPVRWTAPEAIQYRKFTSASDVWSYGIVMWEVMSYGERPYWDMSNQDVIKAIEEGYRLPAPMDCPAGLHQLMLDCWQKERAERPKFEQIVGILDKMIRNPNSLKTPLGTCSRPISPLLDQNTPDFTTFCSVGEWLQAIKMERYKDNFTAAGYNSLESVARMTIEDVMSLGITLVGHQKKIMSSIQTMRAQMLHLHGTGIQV
MAP2K2 (human), sequence (P36507 whole entry, looked up): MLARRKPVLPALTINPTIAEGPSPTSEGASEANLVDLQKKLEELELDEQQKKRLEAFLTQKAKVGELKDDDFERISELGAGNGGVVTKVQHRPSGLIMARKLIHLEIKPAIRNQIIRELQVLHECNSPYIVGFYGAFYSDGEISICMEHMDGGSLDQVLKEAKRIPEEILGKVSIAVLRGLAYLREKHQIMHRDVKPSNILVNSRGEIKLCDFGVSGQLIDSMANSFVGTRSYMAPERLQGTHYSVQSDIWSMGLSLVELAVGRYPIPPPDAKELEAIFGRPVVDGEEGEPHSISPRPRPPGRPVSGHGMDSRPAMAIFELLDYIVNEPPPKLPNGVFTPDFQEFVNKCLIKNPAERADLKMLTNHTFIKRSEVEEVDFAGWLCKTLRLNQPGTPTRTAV
MST1R (human), sequence (Q04912 whole entry, looked up): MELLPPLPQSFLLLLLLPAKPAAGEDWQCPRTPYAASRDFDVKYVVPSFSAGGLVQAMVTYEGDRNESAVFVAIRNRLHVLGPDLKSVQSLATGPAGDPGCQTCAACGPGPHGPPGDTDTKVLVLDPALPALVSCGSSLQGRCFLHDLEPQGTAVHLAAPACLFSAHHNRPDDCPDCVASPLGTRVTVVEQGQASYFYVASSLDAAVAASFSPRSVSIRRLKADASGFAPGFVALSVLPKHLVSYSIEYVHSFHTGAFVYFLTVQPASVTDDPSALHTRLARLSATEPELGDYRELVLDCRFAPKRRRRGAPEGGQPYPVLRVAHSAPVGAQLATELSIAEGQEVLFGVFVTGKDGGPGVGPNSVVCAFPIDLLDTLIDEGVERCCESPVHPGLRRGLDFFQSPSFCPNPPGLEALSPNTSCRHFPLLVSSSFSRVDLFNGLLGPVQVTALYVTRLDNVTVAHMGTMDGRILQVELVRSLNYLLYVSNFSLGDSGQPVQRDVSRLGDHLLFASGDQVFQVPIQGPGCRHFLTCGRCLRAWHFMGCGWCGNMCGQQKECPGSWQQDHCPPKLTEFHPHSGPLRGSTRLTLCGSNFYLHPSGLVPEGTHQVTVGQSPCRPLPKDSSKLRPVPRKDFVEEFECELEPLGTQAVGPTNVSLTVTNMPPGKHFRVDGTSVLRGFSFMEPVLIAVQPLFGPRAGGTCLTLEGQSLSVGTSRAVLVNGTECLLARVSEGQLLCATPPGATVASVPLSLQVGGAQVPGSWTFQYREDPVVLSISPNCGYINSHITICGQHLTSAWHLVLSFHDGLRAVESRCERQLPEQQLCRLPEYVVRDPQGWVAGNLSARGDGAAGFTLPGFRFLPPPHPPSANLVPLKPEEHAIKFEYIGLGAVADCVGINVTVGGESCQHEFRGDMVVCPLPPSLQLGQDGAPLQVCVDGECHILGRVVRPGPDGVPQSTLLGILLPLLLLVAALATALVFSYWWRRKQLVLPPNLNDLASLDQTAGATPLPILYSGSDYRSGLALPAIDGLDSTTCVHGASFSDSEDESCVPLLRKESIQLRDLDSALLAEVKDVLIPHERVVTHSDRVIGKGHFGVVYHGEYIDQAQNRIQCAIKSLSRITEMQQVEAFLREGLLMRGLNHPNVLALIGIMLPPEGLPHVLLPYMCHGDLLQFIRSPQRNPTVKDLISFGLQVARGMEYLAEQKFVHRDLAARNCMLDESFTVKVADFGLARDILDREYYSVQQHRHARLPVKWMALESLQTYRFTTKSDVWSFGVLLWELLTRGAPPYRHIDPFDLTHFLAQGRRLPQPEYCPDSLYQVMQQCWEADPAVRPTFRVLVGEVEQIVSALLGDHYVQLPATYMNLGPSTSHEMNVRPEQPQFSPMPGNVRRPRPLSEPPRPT
ACVR1B (human), sequence (P36896 whole entry, looked up): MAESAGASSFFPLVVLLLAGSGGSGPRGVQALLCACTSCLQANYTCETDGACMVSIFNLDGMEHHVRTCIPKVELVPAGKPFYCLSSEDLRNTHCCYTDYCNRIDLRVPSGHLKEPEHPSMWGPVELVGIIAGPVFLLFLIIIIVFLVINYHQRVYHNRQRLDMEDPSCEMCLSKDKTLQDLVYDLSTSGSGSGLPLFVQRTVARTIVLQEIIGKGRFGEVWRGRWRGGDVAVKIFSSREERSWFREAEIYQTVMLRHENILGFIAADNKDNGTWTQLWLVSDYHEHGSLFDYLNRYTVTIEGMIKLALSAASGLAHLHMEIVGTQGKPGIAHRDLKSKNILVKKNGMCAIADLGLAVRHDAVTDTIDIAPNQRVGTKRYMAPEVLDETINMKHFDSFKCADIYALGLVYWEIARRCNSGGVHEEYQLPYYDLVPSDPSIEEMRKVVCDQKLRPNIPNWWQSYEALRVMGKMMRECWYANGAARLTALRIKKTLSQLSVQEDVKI
NEK7 (human), sequence (Q8TDX7 whole entry, looked up): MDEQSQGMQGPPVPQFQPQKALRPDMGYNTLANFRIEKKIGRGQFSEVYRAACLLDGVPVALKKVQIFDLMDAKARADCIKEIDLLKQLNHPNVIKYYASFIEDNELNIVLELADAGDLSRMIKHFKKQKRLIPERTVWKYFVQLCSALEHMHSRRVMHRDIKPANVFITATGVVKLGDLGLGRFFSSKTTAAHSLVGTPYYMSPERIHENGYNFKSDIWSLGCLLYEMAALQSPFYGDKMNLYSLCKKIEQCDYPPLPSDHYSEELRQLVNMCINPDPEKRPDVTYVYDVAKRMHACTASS
CDK3 (human), sequence (Q00526 whole entry, looked up): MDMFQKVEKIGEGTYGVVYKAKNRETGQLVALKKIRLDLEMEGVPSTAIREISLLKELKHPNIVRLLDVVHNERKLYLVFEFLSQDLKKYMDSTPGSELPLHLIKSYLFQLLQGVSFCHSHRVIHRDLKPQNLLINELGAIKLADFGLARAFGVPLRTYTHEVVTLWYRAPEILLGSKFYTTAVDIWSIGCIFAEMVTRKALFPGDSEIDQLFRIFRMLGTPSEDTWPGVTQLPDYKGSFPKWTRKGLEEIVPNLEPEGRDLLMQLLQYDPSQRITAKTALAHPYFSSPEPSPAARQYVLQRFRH

## CN1C(=O)c2ccccc2N(C)c2nc(NS(=O)(=O)c3ccc(N)cc3)ncc21
MST1R (human)
  kinase still bound, per cent of control: 100%
EGFR (human)
  kinase still bound, per cent of control: 100%
[1]
  kinase still bound, per cent of control: 100%
EPHA7 (human)
  kinase still bound, per cent of control: 100%
MAPKAPK2 (human)
  kinase still bound, per cent of control: 96%
CDK18 (human)
  kinase still bound, per cent of control: 100%
PIK3C2B (human)
  kinase still bound, per cent of control: 97%
AXL (human)
  kinase still bound, per cent of control: 100%
TXK (human)
  kinase still bound, per cent of control: 96%
PKN2 (human)
  kinase still bound, per cent of control: 70%
CDK9 (human)
  kinase still bound, per cent of control: 100%
NTRK1 (human)
  kinase still bound, per cent of control: 77%
IKBKB (human)
  kinase still bound, per cent of control: 100%
CAMK2G (human)
  kinase still bound, per cent of control: 100%
MARK4 (human)
  kinase still bound, per cent of control: 93%
MAPK6 (human)
  kinase still bound, per cent of control: 78%
PAK2 (human)
  kinase still bound, per cent of control: 100%
MAP3K9 (human)
  kinase still bound, per cent of control: 100%
NTRK2 (human)
  kinase still bound, per cent of control: 53%
[2]
  kinase still bound, per cent of control: 100%
CSNK1A1L (human)
  kinase still bound, per cent of control: 100%
TEC (human)
  kinase still bound, per cent of control: 100%
DCLK2 (human)
  kinase still bound, per cent of control: 70%
MAP2K2 (human)
  kinase still bound, per cent of control: 100%
CDK11B (human)
  kinase still bound, per cent of control: 96%
ITK (human)
  kinase still bound, per cent of control: 100%
AKT3 (human)
  kinase still bound, per cent of control: 88%
AURKA (human)
  kinase still bound, per cent of control: 100%
PRKG2 (human)
  kinase still bound, per cent of control: 100%
[3]
  kinase still bound, per cent of control: 100%
MAPK13 (human)
  kinase still bound, per cent of control: 90%
[4]
  kinase still bound, per cent of control: 100%
FGR (human)
  kinase still bound, per cent of control: 100%
BMPR2 (human)
  kinase still bound, per cent of control: 100%
ROS1 (human)
  kinase still bound, per cent of control: 100%
NEK7 (human)
  kinase still bound, per cent of control: 89%
ACVR1B (human)
  kinase still bound, per cent of control: 100%
CAMK4 (human)
  kinase still bound, per cent of control: 100%
[5]
  kinase still bound, per cent of control: 100%
CDK3 (human)
  kinase still bound, per cent of control: 100%
DDR2 (human)
  kinase still bound, per cent of control: 98%
[6]
  kinase still bound, per cent of control: 100%
